One assay deals with CK1ε (Homo sapiens, UniProt P49674). In words: CK1ε kinase assay (Caliper LabChip electrophoretic separation of fluoresceinated peptide substrate and product). The settings on record: 200 pM CK1ε, 50 μM ATP, 1.5 μM peptide, 22 hours at room temperature; read-out: CK1ε IC50 range. It is filed as biochemical. The method, boiled down:
(§1)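 Each reaction was incubated 22 hours at room temperature and terminated with EDTA. Read-out was microfluidic electrophoretic separation of fluoresceinated substrate and phospho-product.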

The next assay deals with CK1δ (Homo sapiens, UniProt P48730). As to the kind of experiment: CK1δ kinase assay (Caliper LabChip electrophoretic separation of fluoresceinated peptide substrate and product). It is filed as biochemical. The settings on record: 200 pM CK1δ, 50 μM ATP, 1.5 μM peptide, 22 hours at room temperature; read-out: CK1δ IC50 range. The method, boiled down: as §1

Our source for the IC50 values is patent publication US9273058B2 (BRISTOL-MYERS SQUIBB COMPANY, priority 2013, dated 2016).

Structures are written as SMILES.

By IC50 is commonly meant the concentration that inhibits the measured activity by half.

CK1ε, sequence (P49674 whole entry): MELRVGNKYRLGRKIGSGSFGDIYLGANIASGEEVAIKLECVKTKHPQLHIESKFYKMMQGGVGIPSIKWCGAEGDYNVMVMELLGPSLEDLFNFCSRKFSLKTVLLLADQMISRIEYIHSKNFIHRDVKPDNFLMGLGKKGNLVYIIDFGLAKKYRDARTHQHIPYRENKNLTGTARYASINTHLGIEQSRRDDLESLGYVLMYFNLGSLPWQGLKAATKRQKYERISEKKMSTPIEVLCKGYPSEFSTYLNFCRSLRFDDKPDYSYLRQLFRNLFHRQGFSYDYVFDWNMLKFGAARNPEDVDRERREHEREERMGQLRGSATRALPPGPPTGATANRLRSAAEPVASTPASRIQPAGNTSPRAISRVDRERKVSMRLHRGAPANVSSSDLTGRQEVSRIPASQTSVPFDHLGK
CK1δ, sequence (P48730 whole entry): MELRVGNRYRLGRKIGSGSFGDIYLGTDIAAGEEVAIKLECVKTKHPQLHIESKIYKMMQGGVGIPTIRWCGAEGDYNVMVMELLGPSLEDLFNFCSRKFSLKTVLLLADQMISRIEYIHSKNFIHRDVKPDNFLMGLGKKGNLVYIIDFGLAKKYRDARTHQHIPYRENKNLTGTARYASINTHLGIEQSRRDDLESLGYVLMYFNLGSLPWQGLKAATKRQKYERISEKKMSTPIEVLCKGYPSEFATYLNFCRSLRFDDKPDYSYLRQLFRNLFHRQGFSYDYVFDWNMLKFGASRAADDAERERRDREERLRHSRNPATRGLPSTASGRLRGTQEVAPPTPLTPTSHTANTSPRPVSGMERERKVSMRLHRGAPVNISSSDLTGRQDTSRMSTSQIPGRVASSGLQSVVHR

Regarding `CC(C)(NC(=O)N1CCn2nc(-c3ccc(Cl)c(Cl)c3)c(C(N)=O)c2C1)C(F)F` [Compound 199, 2-(3,4-Dichlorophenyl)-N^5-(1,1-difluoro-2-methylpropan-2-yl)-6,7-dihydropyrazolo[1,5-a]pyrazine-3,5(4H)-dicarboxamide], the IC50 at CK1ε and on CK1δ was 0.01 to 10 nM in each case.

With `CC(C)(NC(=O)N1CCn2nc(-c3ccc(Cl)c(Cl)c3)c(C(N)=O)c2C1)c1ccc(C#N)cc1` [Compound 200, N^5-(2-(4-Cyanophenyl)propan-2-yl)-2-(3,4-dichlorophenyl)-6,7-dihydropyrazolo[1,5-a] pyrazine-3,5(4H)-dicarboxamide], the IC50 at CK1ε and on CK1δ was 0.01 to 10 nM in each case.

For `NC(=O)c1c(-c2ccc(Cl)c(Cl)c2)nn2c1CN(C(=O)N[C@H]1C[C@H](F)C1)CC2` [Compound 202, 2-(3,4-Dichlorophenyl)-N^5-((1r,3r)-3-fluorocyclobutyl)-6,7-dihydropyrazolo[1,5-a] pyrazine-3,5(4H)-dicarboxamide], the 50% inhibitory concentration (IC50) at CK1ε and on CK1δ was 0.01 to 10 nM throughout.

Regarding `NC(=O)c1c(-c2ccc(Cl)c(Cl)c2)nn2c1CN(C(=O)N[C@H]1C[C@@H](F)C1)CC2` [Compound 203, 2-(3,4-Dichlorophenyl)-N^5-((1s,3s)-3-fluorocyclobutyl)-6,7-dihydropyrazolo[1,5-a] pyrazine-3,5(4H)-dicarboxamide], the IC50 on CK1ε and on CK1δ was 0.01 to 10 nM each time.

On to `CO[C@H]1C[C@H](NC(=O)N2CCn3nc(-c4ccc(Cl)c(Cl)c4)c(C(N)=O)c3C2)C1` [Compound 204, 2-(3,4-Dichlorophenyl)-N^5-((1r,3r)-3-methoxycyclobutyl)-6,7-dihydropyrazolo[1,5-a] pyrazine-3,5(4H)-dicarboxamide], for which the IC50 at CK1ε and on CK1δ was 0.01 to 10 nM each time.

Consider `NC(=O)c1c(-c2ccc(Cl)c(Cl)c2)nn2c1CN(C(=O)NCC1CC(F)(F)C1)CC2` [Compound 205, 2-(3,4-Dichlorophenyl)-N^5-((3,3-difluorocyclobutyl)methyl)-6,7-dihydropyrazolo[1,5-a] pyrazine-3,5(4H)-dicarboxamide], for which the IC50 on CK1ε and on CK1δ was 0.01 to 10 nM each time.

As to `NC(=O)c1c(-c2ccc(Cl)c(Cl)c2)nn2c1CN(C(=O)NCC1CCC(F)(F)CC1)CC2` [Compound 206, 2-(3,4-Dichlorophenyl)-N^5-((4,4-difluorocyclohexyl)methyl)-6,7-dihydropyrazolo[1,5-a] pyrazine-3,5(4H)-dicarboxamide], the IC50 at CK1ε and on CK1δ was 0.01 to 10 nM throughout.

On to `NC(=O)c1c(-c2ccc(Cl)c(Cl)c2)nn2c1CN(C(=O)NC1CC3(C1)CC(F)(F)C3)CC2` [Compound 208, 2-(3,4-Dichlorophenyl)-N^5-(6,6-difluorospiro [3.3]heptan-2-yl)-6,7-dihydropyrazolo[1,5-a] pyrazine-3,5(4H)-dicarboxamide], for which the IC50 at CK1ε and on CK1δ was 0.01 to 10 nM throughout.

In the case of `CC(CF)(CF)NC(=O)N1CCn2nc(-c3ccc(F)c(Cl)c3)c(C(N)=O)c2C1` [Compound 209, 2-(3-Chloro-4-fluorophenyl)-N^5-(1,3-difluoro-2-methylpropan-2-yl)-6,7-dihydropyrazolo[1,5-a]pyrazine-3,5(4H)-dicarboxamide], the IC50 on CK1ε and at CK1δ was 0.01 to 10 nM each time.

For `CC(C)(COC(F)(F)F)NC(=O)N1CCn2nc(-c3ccc(F)c(Cl)c3)c(C(N)=O)c2C1` [Compound 212, 2-(3-Chloro-4-fluorophenyl)-N^5-(2-methyl-1-(trifluoromethoxy)propan-2-yl)-6,7-dihydropyrazolo[1,5-a]pyrazine-3,5(4H)-dicarboxamide], the IC50 at CK1ε and at CK1δ was 0.01 to 10 nM in each case.

In the case of `CC(C)(NC(=O)N1CCn2nc(-c3ccc(F)c(Cl)c3)c(C(N)=O)c2C1)C(=O)NC1CC1` [Compound 213, 2-(3-Chloro-4-fluorophenyl)-N^5-(1-(cyclopropylamino)-2-methyl-1-oxopropan-2-yl)-6,7-dihydropyrazolo[1,5-a]pyrazine-3,5(4H)-dicarboxamide], the IC50 on CK1ε and on CK1δ was 10 to 100 nM in each case.

Turning to `CNC(=O)C(C)(C)NC(=O)N1CCn2nc(-c3ccc(F)c(Cl)c3)c(C(N)=O)c2C1` [Compound 214, 2-(3-Chloro-4-fluorophenyl)-N^5-(2-methyl-1-(methylamino)-1-oxopropan-2-yl)-6,7-dihydropyrazolo[1,5-a] pyrazine-3,5(4H)-dicarboxamide], the IC50 on CK1ε and at CK1δ was 10 to 100 nM in each case.

Turning to `CC(C)(NC(=O)N1CCn2nc(-c3ccc(F)c(Cl)c3)c(C(N)=O)c2C1)C(=O)N1CCCC1` [Compound 215, 2-(3-Chloro-4-fluorophenyl)-N^5-(2-methyl-1-oxo-1-(pyrrolidin-1-yl)propan-2-yl)-6,7-dihydropyrazolo [1,5-a]pyrazine-3,5(4H)-dicarboxamide], the IC50 fell in the range of 10 to 100 nM on CK1ε and 0.01 to 10 nM at CK1δ.

On to `CC(C)NC(=O)C(C)(C)NC(=O)N1CCn2nc(-c3ccc(F)c(Cl)c3)c(C(N)=O)c2C1` [Compound 216, 2-(3-Chloro-4-fluorophenyl)-N^5-(1-(isopropylamino)-2-methyl-1-oxopropan-2-yl)-6,7-dihydropyrazolo[1,5-a] pyrazine-3,5(4H)-dicarboxamide], for which the IC50 at CK1ε lay within 100 to 2000 nM; on CK1δ it was 10 to 100 nM.

With `COCCNC(=O)C(C)(C)NC(=O)N1CCn2nc(-c3ccc(F)c(Cl)c3)c(C(N)=O)c2C1` [Compound 217, 2-(3-Chloro-4-fluorophenyl)-N^5-(1-((2-methoxyethyl)amino)-2-methyl-1-oxopropan-2-yl)-6,7-dihydropyrazolo[1,5-a] pyrazine-3,5(4H)-dicarboxamide], the IC50 on CK1ε is 100 to 2000 nM; at CK1δ, 10 to 100 nM.

As to `CN(C)C(=O)C(C)(C)NC(=O)N1CCn2nc(-c3ccc(F)c(Cl)c3)c(C(N)=O)c2C1` [Compound 218, 2-(3-Chloro-4-fluorophenyl)-N^5-(1-(dimethylamino)-2-methyl-1-oxopropan-2-yl)-6,7-dihydropyrazolo[1,5-a] pyrazine-3,5(4H)-dicarboxamide], the IC50 fell in the range of 10 to 100 nM at CK1ε and 0.01 to 10 nM on CK1δ.

On to `CC(C)(NC(=O)N1CCn2nc(-c3ccc(F)c(Cl)c3)c(C(N)=O)c2C1)C(N)=O` [Compound 219, N^5-(1-Amino-2-methyl-1-oxopropan-2-yl)-2-(3-chloro-4-fluorophenyl)-6,7-dihydropyrazolo[1,5-a] pyrazine-3,5(4H)-dicarboxamide], for which the IC50 at CK1ε and at CK1δ was 10 to 100 nM in each case.

Consider `N#CCC1(NC(=O)N2CCn3nc(-c4ccc(F)c(Cl)c4)c(C(N)=O)c3C2)CCC1` [Compound 220, 2-(3-Chloro-4-fluorophenyl)-N^5-(1-(cyanomethyl)cyclobutyl)-6,7-dihydro pyrazolo[1,5-a]pyrazine-3,5(4H)-dicarboxamide], for which the IC50 at CK1ε and at CK1δ was 0.01 to 10 nM each time.

As for `N#CCC1(NC(=O)N2CCn3nc(-c4cccc(Cl)c4)c(C(N)=O)c3C2)CCC1` [Compound 221, 2-(3-Chlorophenyl)-N^5-(1-(cyanomethyl)cyclobutyl)-6,7-dihydropyrazolo[1,5-a] pyrazine-3,5(4H)-dicarboxamide], the IC50 at CK1ε and on CK1δ was 0.01 to 10 nM each time.
